{"source": "patent US20080276327A1", "about": "“Methods and Compositions Related to Delivery of Chemical Compounds to Invertebrate Embryos” (UNIVERSITY OF UTAH RESEARCH FOUNDATION, priority 2004, published 2008)", "test_system": "Drosophila embryos", "experiment": "DMSO dose-response, development and hatching of Drosophila embryos", "type": "in vivo", "procedure": "Initial studies examined the toxicity of DMSO in Drosophila embryos.\nFirst it was shown that DMSO was not deleterious to normal embryonic development.\nBroad dilution series were made of DMSO in PBS. Approximately 50 eggs were placed in each well of a 96 well plate containing these solutions. They were placed at 18° C. or at 25° C. and hatched offspring were counted at the end of embryonic development (36 hours at 18° and 24 hours at 25°). […] 100% of eggs produced normal larvae at concentrations as high as 5% in PBS, pH 7.2. At 7.5% DMSO the percentage declined dramatically to approximately 50% and by 10% DMSO, the percentage hatching was only ˜10%.", "data": [{"smiles": "C[S+](C)[O-]", "note": "[DMSO]", "values": [{"measurement": "percentage hatching", "setting": "7.5% DMSO in PBS", "result": "Approximately 50%"}, {"measurement": "percentage hatching", "setting": "10% DMSO in PBS", "result": "~10", "unit": "%"}, {"measurement": "eggs that produced normal larvae", "setting": "DMSO as high as 5% in PBS, pH 7.2", "result": 100, "unit": "%"}, {"measurement": "embryos in which normal development occurs", "setting": "concentrations of DMSO as high as 5%", "result": 100, "unit": "%"}, {"measurement": "concentrations of DMSO at which embryonic development proceeds normally to eclosion", "setting": "dose-response curves", "result": "≤ 5", "unit": "% v/v"}, {"measurement": "percentages surviving at 25° compared with 18°", "setting": "solutions above 5% DMSO", "result": "always less than those kept at 18°"}]}]}
